Target: Carbonic anhydrase 1 (Homo sapiens, UniProt P00915)
Test: Inhibition of recombinant human carbonic anhydrase-1 assessed as reduction in enzyme-catalyzed hydration activity using CO2 as substrate preincubated for 15 mins followed substrate addition measured after 10 to 100 sec by phenol red dye based stopped flow assay

Chain of Carbonic anhydrase 1 (P00915 whole entry): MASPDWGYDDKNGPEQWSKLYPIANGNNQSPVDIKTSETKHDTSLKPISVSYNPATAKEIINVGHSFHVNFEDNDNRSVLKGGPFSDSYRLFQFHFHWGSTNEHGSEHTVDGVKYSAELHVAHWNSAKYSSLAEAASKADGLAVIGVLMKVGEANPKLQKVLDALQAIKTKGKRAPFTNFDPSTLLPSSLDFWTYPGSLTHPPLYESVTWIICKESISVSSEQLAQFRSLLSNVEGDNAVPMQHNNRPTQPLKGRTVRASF

Ki, > 10 µM:
COc1ccc(-c2c(C)noc2NC(C)=O)cc1S(N)(=O)=O
COc1ccc(S(N)(=O)=O)c(-c2noc(N)c2S(N)(=O)=O)c1
COc1ccc(-c2cc(NC(C)=O)on2)cc1S(N)(=O)=O
CC(=O)Nc1cc(-c2cc(S(N)(=O)=O)c(C)s2)no1
CC(=O)Nc1cc(-c2ccc(C)c(S(N)(=O)=O)c2)no1
COc1ccc(-c2noc(N)c2S(N)(=O)=O)cc1S(N)(=O)=O
COc1ccc(S(N)(=O)=O)c(-c2c(C)noc2NC(C)=O)c1
COc1ccc(S(N)(=O)=O)c(-c2cc(NC(C)=O)on2)c1

Target: Carbonic anhydrase 2 (Homo sapiens, UniProt P00918)
Test: Inhibition of recombinant human carbonic anhydrase-2 assessed as reduction in enzyme-catalyzed hydration activity using CO2 as substrate preincubated for 15 mins followed substrate addition measured after 10 to 100 sec by phenol red dye based stopped flow assay

Ki, > 10 µM:
COc1ccc(-c2c(C)noc2NC(C)=O)cc1S(N)(=O)=O
COc1ccc(-c2cc(NC(C)=O)on2)cc1S(N)(=O)=O
COc1ccc(S(N)(=O)=O)c(-c2c(C)noc2NC(C)=O)c1
COc1ccc(S(N)(=O)=O)c(-c2cc(NC(C)=O)on2)c1

Target: Carbonic anhydrase 4 (Homo sapiens, UniProt P22748)
Sequence (P22748 whole entry): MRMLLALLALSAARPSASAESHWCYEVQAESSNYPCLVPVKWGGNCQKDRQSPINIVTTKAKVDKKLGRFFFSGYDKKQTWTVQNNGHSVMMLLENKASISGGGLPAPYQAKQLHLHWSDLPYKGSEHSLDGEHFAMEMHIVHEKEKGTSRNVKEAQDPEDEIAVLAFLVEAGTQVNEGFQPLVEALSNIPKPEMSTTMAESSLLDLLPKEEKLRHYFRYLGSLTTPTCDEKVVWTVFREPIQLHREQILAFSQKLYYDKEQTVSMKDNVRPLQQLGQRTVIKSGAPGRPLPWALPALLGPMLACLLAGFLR
Test: Inhibition of recombinant human carbonic anhydrase-4 assessed as reduction in enzyme-catalyzed hydration activity using CO2 as substrate preincubated for 15 mins followed substrate addition measured after 10 to 100 sec by phenol red dye based stopped flow assay

Ki, > 10 µM:
COc1ccc(-c2c(C)noc2NC(C)=O)cc1S(N)(=O)=O
COc1ccc(S(N)(=O)=O)c(-c2noc(N)c2S(N)(=O)=O)c1
CC(=O)Nc1onc(C)c1-c1ccc(S(N)(=O)=O)c(C)c1
COc1ccc(-c2cc(NC(C)=O)on2)cc1S(N)(=O)=O
CC(=O)Nc1cc(-c2cc(S(N)(=O)=O)c(C)s2)no1
CC(=O)Nc1cc(-c2ccc(C)c(S(N)(=O)=O)c2)no1
COc1ccc(S(N)(=O)=O)c(-c2c(C)noc2NC(C)=O)c1
COc1ccc(S(N)(=O)=O)c(-c2cc(NC(C)=O)on2)c1

Target: Carbonic anhydrase 7 (Homo sapiens, UniProt P43166)
Sequence (P43166 whole entry): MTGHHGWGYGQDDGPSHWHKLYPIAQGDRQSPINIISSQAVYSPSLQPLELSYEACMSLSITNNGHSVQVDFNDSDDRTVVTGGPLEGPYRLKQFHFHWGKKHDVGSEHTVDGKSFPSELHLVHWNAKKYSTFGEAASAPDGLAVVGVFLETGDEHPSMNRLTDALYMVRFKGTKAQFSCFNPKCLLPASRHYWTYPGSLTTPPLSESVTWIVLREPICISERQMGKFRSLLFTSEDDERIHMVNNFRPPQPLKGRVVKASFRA
Test: Inhibition of recombinant human carbonic anhydrase-7 assessed as reduction in enzyme-catalyzed hydration activity using CO2 as substrate preincubated for 15 mins followed substrate addition measured after 10 to 100 sec by phenol red dye based stopped flow assay

Ki, > 10 µM:
COc1ccc(-c2c(C)noc2NC(C)=O)cc1S(N)(=O)=O
COc1ccc(S(N)(=O)=O)c(-c2noc(N)c2S(N)(=O)=O)c1
COc1ccc(-c2cc(NC(C)=O)on2)cc1S(N)(=O)=O
CC(=O)Nc1cc(-c2cc(S(N)(=O)=O)c(C)s2)no1
COc1ccc(-c2noc(N)c2S(N)(=O)=O)cc1S(N)(=O)=O
COc1ccc(S(N)(=O)=O)c(-c2c(C)noc2NC(C)=O)c1
COc1ccc(S(N)(=O)=O)c(-c2cc(NC(C)=O)on2)c1

— ChEMBL document CHEMBL3992559, “Human carbonic anhydrase inhibitory profile of mono- and bis-sulfonamides synthesized via a direct sulfochlorination of 3- and 4-(hetero)arylisoxazol-5-amine scaffolds” (Bioorg Med Chem, 2017)
